This note sets out measurements from ChEMBL document CHEMBL1121791, “Computer-assisted structure-activity studies of chemical carcinogens. Aromatic amines” (J Med Chem, 1981).

Common to all, as to assay type: functional, organism-based
Assay [1] relates to Rattus norvegicus. The experiment in a line: Carcinogenic activity on all sites after oral administration.
Assay [2] deals with Rattus norvegicus. The assay is described as follows: Carcinogenic activity on breast after oral administration of the compound.
Assay [3] concerns Rattus norvegicus. The experiment in a line: Carcinogenic activity on ear duct after oral administration.
The subject of assay [4] is Rattus norvegicus. The assay is described as follows: Carcinogenic activity on mixed data after oral administration.
The subject of assay [5] is Rattus norvegicus. The experiment in a line: Carcinogenic activity on liver after oral administration.
In assay [6] the test system is Rattus norvegicus. The experiment in a line: Carcinogenic activity on other sites after oral administration.

For `CC(=O)Nc1ccc2c(c1F)Cc1ccccc1-2`, the Activity result in the assay with Rattus norvegicus [1], in the assay on Rattus norvegicus [2] and in the assay on Rattus norvegicus [3] was “Carcinogenic activity” throughout.
In the case of `COc1ccc2c(c1)Cc1cc(NC(C)=O)ccc1-2`, the Activity result in the assay on Rattus norvegicus [1], in the assay with Rattus norvegicus [2], with Rattus norvegicus [4], in the assay with Rattus norvegicus [5] and with Rattus norvegicus [3] was “Carcinogenic activity” each time.
In the case of `Nc1ccc(Cc2ccc(N)c(Cl)c2)cc1Cl`, the Activity result with Rattus norvegicus [1], with Rattus norvegicus [5] and in the assay with Rattus norvegicus [6] was “Carcinogenic activity” throughout.
Take `CN(C)Nc1nc(-c2ccc([N+](=O)[O-])o2)cs1`: the Activity result in the assay on Rattus norvegicus [1] and with Rattus norvegicus [6] was “Carcinogenic activity” each time.
Take `Cc1cccc(/C=C/c2ccc(N(C)C)cc2)c1`: the Activity entry in the assay with Rattus norvegicus [1] and in the assay on Rattus norvegicus [3] was “Carcinogenic activity” each time.
Consider `Nc1cc2ccccc2cc1[N+](=O)[O-]`, for which the Activity result with Rattus norvegicus [1] and in the assay on Rattus norvegicus [6] was “Carcinogenic activity” each time.
Consider `Nc1ccc2c(c1)Cc1cc(N)ccc1-2`, for which the Activity entry with Rattus norvegicus [1] and in the assay on Rattus norvegicus [2] was “Carcinogenic activity” throughout.
Regarding `CCN(CC)c1ccc2c(c1)Cc1ccccc1-2`, the Activity result with Rattus norvegicus [1] and with Rattus norvegicus [6] was “Carcinogenic activity” each time.
Take `CN(C)c1ccc(/C=C/c2ccc(F)cc2)cc1`: the Activity result with Rattus norvegicus [1] and in the assay with Rattus norvegicus [3] was “Carcinogenic activity” each time.
`CC(=O)Nc1ccc2c(c1)Cc1cccc(F)c1-2`: the Activity entry in the assay on Rattus norvegicus [1], in the assay with Rattus norvegicus [2] and in the assay with Rattus norvegicus [3] was “Carcinogenic activity” in each case.
Consider `Cn1cnc([N+](=O)[O-])c1Sc1ncnc2[nH]cnc12`, for which the Activity entry with Rattus norvegicus [1], with Rattus norvegicus [3] and in the assay with Rattus norvegicus [6] was “Carcinogenic activity” each time.
With `CC(=O)Nc1cc(F)c2c(c1)Cc1ccccc1-2`, the Activity result in the assay with Rattus norvegicus [1], in the assay on Rattus norvegicus [2] and in the assay on Rattus norvegicus [3] was “Carcinogenic activity” in each case.
Turning to `CC(=O)Nc1nc(-c2ccc([N+](=O)[O-])o2)no1`, the Activity entry in the assay with Rattus norvegicus [1], with Rattus norvegicus [5] and with Rattus norvegicus [6] was “Carcinogenic activity” throughout.
`Nc1cc2ccccc2c2ccccc12`: the Activity result in the assay on Rattus norvegicus [1] and in the assay with Rattus norvegicus [2] was “Carcinogenic activity” in each case.
Turning to `Nc1ccc2c(c1)CCc1ccccc1-2`, the Activity result in the assay with Rattus norvegicus [1], in the assay with Rattus norvegicus [4], with Rattus norvegicus [3] and with Rattus norvegicus [6] was “Carcinogenic activity” in each case.
With `CC(=O)Nc1ccc2c(c1)oc1ccccc12`, the Activity result in the assay on Rattus norvegicus [1], in the assay on Rattus norvegicus [2] and with Rattus norvegicus [3] was “Carcinogenic activity” in each case.
Consider `CN(C)c1ccc2cc3ccc(N(C)C)cc3nc2c1`, for which the Activity result with Rattus norvegicus [1] and in the assay on Rattus norvegicus [5] was “Carcinogenic activity” throughout.
In the case of `CC(=O)Nc1ccc2c(c1)Cc1ccccc1S2`, the Activity result in the assay on Rattus norvegicus [1], in the assay on Rattus norvegicus [2], in the assay on Rattus norvegicus [4], with Rattus norvegicus [3] and in the assay on Rattus norvegicus [6] was “Carcinogenic activity” throughout.
`O=CNc1ccc2c(c1)Cc1ccccc1-2`: the Activity entry in the assay on Rattus norvegicus [1], with Rattus norvegicus [2] and in the assay on Rattus norvegicus [3] was “Carcinogenic activity” throughout.
Turning to `Nc1nc(N)nc(-c2ccc([N+](=O)[O-])o2)n1`, the Activity entry with Rattus norvegicus [1] and with Rattus norvegicus [2] was “Carcinogenic activity” throughout.
Take `ONc1cccc2ccccc12`: the Activity result with Rattus norvegicus [1] and in the assay with Rattus norvegicus [6] was “Carcinogenic activity” throughout.
As to `CC(=O)Nc1ccc2c(c1)Cc1cccc(NC(C)=O)c1-2`, the Activity result in the assay with Rattus norvegicus [1] and in the assay with Rattus norvegicus [2] was “Carcinogenic activity” throughout.
Take `Nc1ccc(/N=N/c2ccccc2)cc1`: the Activity entry in the assay on Rattus norvegicus [1] and with Rattus norvegicus [6] was “Carcinogenic activity” each time.
As to `CC(=O)Nc1cc2c(cc1F)-c1ccccc1C2`, the Activity entry with Rattus norvegicus [1], in the assay with Rattus norvegicus [2], in the assay on Rattus norvegicus [4], in the assay with Rattus norvegicus [5] and in the assay with Rattus norvegicus [3] was “Carcinogenic activity” each time.
Regarding `Nc1ccc(/C=C/c2ccc3ccccc3n2)cc1`, the Activity entry with Rattus norvegicus [1] and in the assay on Rattus norvegicus [3] was “Carcinogenic activity” in each case.
Regarding `COc1cc(/N=N/c2ccccc2)ccc1N`, the Activity entry in the assay on Rattus norvegicus [1], in the assay with Rattus norvegicus [4], with Rattus norvegicus [5], in the assay on Rattus norvegicus [3] and with Rattus norvegicus [6] was “Carcinogenic activity” in each case.
On to `COc1ccc(/N=N/c2ccc(N)c(OC)c2)cc1`, for which the Activity entry in the assay on Rattus norvegicus [1], with Rattus norvegicus [5] and in the assay on Rattus norvegicus [6] was “Carcinogenic activity” each time.
In the case of `Nc1ccc(-c2ccccc2)cc1F`, the Activity entry with Rattus norvegicus [1] and in the assay with Rattus norvegicus [2] was “Carcinogenic activity” throughout.
`Cc1cccc(/N=N/c2cc(C)ccc2N)c1`: the Activity result in the assay with Rattus norvegicus [1] and in the assay with Rattus norvegicus [5] was “Carcinogenic activity” throughout.
In the case of `CN(C)c1ccc(/C=C/c2ccc(Cl)cc2)cc1`, the Activity result in the assay on Rattus norvegicus [1] and in the assay with Rattus norvegicus [3] was “Carcinogenic activity” each time.
With `O=CNc1nc(-c2ccc([N+](=O)[O-])o2)cs1`, the Activity entry in the assay on Rattus norvegicus [1], in the assay with Rattus norvegicus [2] and with Rattus norvegicus [6] was “Carcinogenic activity” throughout.
As for `Nc1ccc(-c2cccc(F)c2)cc1`, the Activity result in the assay on Rattus norvegicus [1] and in the assay with Rattus norvegicus [2] was “Carcinogenic activity” in each case.
Take `CC(=O)Nc1ccc2c(c1)Cc1c(F)cccc1-2`: the Activity entry in the assay with Rattus norvegicus [1], with Rattus norvegicus [2], in the assay with Rattus norvegicus [4], with Rattus norvegicus [5] and with Rattus norvegicus [3] was “Carcinogenic activity” each time.
Regarding `CN(C)c1ccc(/C=C/c2ccccc2)cc1`, the Activity entry in the assay with Rattus norvegicus [1] and in the assay on Rattus norvegicus [3] was “Carcinogenic activity” each time.
With `Nc1ccc(-c2ccc(N)c(Cl)c2)cc1Cl`, the Activity entry in the assay on Rattus norvegicus [1], in the assay on Rattus norvegicus [2], in the assay on Rattus norvegicus [4], in the assay on Rattus norvegicus [3] and in the assay on Rattus norvegicus [6] was “Carcinogenic activity” each time.
In the case of `O=C(Nc1ccc2c(c1)Cc1ccccc1-2)C(F)(F)F`, the Activity result in the assay on Rattus norvegicus [1], in the assay on Rattus norvegicus [2], in the assay on Rattus norvegicus [4], in the assay on Rattus norvegicus [5] and with Rattus norvegicus [3] was “Carcinogenic activity” each time.
As for `CC(=O)N(O)c1ccc(/C=C/c2ccccc2)cc1`, the Activity entry in the assay with Rattus norvegicus [1], in the assay with Rattus norvegicus [2], in the assay with Rattus norvegicus [4], in the assay on Rattus norvegicus [3] and in the assay with Rattus norvegicus [6] was “Carcinogenic activity” each time.
As for `Cc1cc2ccccc2cc1N`, the Activity entry in the assay with Rattus norvegicus [1], in the assay with Rattus norvegicus [2] and in the assay on Rattus norvegicus [6] was “Carcinogenic activity” each time.
Turning to `CC(=O)Nc1ccc2c(c1)Sc1ccccc1C2`, the Activity entry in the assay on Rattus norvegicus [1], in the assay on Rattus norvegicus [2], with Rattus norvegicus [4], in the assay on Rattus norvegicus [3] and with Rattus norvegicus [6] was “Carcinogenic activity” each time.
Take `ONc1ccc(/C=C/c2ccccc2)cc1`: the Activity result in the assay with Rattus norvegicus [1] and in the assay on Rattus norvegicus [6] was “Carcinogenic activity” each time.
`Cc1cc(-c2ccccc2)ccc1N`: the Activity entry in the assay with Rattus norvegicus [1], in the assay on Rattus norvegicus [3] and in the assay on Rattus norvegicus [6] was “Carcinogenic activity” in each case.
For the compound `O=C(O)CCC(=O)Nc1ccc2c(c1)Cc1ccccc1-2`, the Activity entry with Rattus norvegicus [1] and in the assay on Rattus norvegicus [5] was “Carcinogenic activity” in each case.
Consider `Nc1ccc2ccc3ccccc3c2c1`, for which the Activity entry with Rattus norvegicus [1] and with Rattus norvegicus [2] was “Carcinogenic activity” each time.
As for `CC(=O)Nc1ccc(/C=C/c2ccccc2)cc1`, the Activity result with Rattus norvegicus [1], in the assay on Rattus norvegicus [2] and with Rattus norvegicus [3] was “Carcinogenic activity” throughout.
Take `CC(=O)N(O)c1ccc(-c2ccccc2)cc1`: the Activity entry in the assay with Rattus norvegicus [1], with Rattus norvegicus [2], with Rattus norvegicus [4], with Rattus norvegicus [3] and in the assay with Rattus norvegicus [6] was “Carcinogenic activity” in each case.
As to `CC(=O)Nc1cc2c(cc1I)-c1ccccc1C2`, the Activity entry in the assay with Rattus norvegicus [1] and in the assay with Rattus norvegicus [3] was “Carcinogenic activity” each time.
Turning to `NCC(=O)Nc1ccc2c(c1)-c1ccccc1C2`, the Activity entry in the assay on Rattus norvegicus [1] and in the assay with Rattus norvegicus [5] was “Carcinogenic activity” each time.
For the compound `Nc1nc[nH]n1`, the Activity result in the assay with Rattus norvegicus [1], in the assay on Rattus norvegicus [5] and in the assay with Rattus norvegicus [6] was “Carcinogenic activity” each time.
